What was measured:
Format in all cases: in vivo
ECHCG [1] = test: Pre-emergence biological efficacy; settings: Echinochloa crus-galli, 312 h, evaluated after 13 days, read-out: damage to plant (100=total damage to plant; 0=no damage to plant)
Method: (§1) Seeds of weeds and/or crops were sown in standard soil in pots. After cultivation for one day under controlled conditions in a glasshouse (at 24/19° C., day/night; 16 hours light), the plants were sprayed with an aqueous spray solution derived from the formulation of the technical active ingredient in a small amount of acetone and a special solvent and emulsifier mixture referred to as IF50 (11.12% Emulsogen EL360 TM+44.44% N-methylpyrrolidone+44.44% Dowanol DPM glycol ether), to create a 50g/l solution which was then diluted using 0.2% Genapol XO80 as diluent to give the desired final dose of test compound.
(§2) The test plants were then grown under controlled conditions in the glasshouse (at 24/18° C., day/night; 15 hours light; 50% humidity) and watered twice daily. After 13 days the test was evaluated (100=total damage to plant; 0=no damage to plant).

AMAPA [2] = test: Pre-emergence biological efficacy; settings: Amaranthus palmeri, 312 h, evaluated after 13 days, read-out: damage to plant (100=total damage to plant; 0=no damage to plant)
Method: as §1, §2

EPHHL [3] = test: Pre-emergence biological efficacy; settings: Euphorbia heterophylla, 312 h, evaluated after 13 days, read-out: damage to plant (100=total damage to plant; 0=no damage to plant)
Method: as §1, §2

SETFA [4] = test: Pre-emergence biological efficacy; settings: Setaria faberi, 312 h, evaluated after 13 days, read-out: damage to plant (100=total damage to plant; 0=no damage to plant)
Method: as §1, §2

IPOHE [5] = test: Pre-emergence biological efficacy; settings: Ipomoea hederacea, 312 h, evaluated after 13 days, read-out: damage to plant (100=total damage to plant; 0=no damage to plant)
Method: as §1, §2

LOLPE [6] = test: Pre-emergence biological efficacy; settings: Lolium perenne, 312 h, evaluated after 13 days, read-out: damage to plant (100=total damage to plant; 0=no damage to plant)
Method: as §1, §2

ECHCG [7] = test: Post-emergence biological efficacy; settings: Echinochloa crus-galli, 312 h, evaluated after 13 days, read-out: damage to plant (100=total damage to plant; 0=no damage to plant)
Method: as §1, with “14 days” for “one day”
(§3) The test plants were then grown under controlled conditions in the glasshouse (at 24/18° C., day/night; 15 hours light; 50% humidity)and watered twice daily. After 13 days the test was evaluated (100=total damage to plant; 0=no damage to plant).

CHEAL = test: Post-emergence biological efficacy; settings: Chenopodium album, 312 h, evaluated after 13 days, read-out: damage to plant (100=total damage to plant; 0=no damage to plant)
Method: as §1, with “14 days” for “one day”
as §3

AMAPA [8] = test: Post-emergence biological efficacy; settings: Amaranthus palmeri, 312 h, evaluated after 13 days, read-out: damage to plant (100=total damage to plant; 0=no damage to plant)
Method: as §1, with “14 days” for “one day”
as §3

EPHHL [9] = test: Post-emergence biological efficacy; settings: Euphorbia heterophylla, 312 h, evaluated after 13 days, read-out: damage to plant (100=total damage to plant; 0=no damage to plant)
Method: as §1, with “14 days” for “one day”
as §3

SETFA [10] = test: Post-emergence biological efficacy; settings: Setaria faberi, 312 h, evaluated after 13 days, read-out: damage to plant (100=total damage to plant; 0=no damage to plant)
Method: as §1, with “14 days” for “one day”
as §3

IPOHE [11] = test: Post-emergence biological efficacy; settings: Ipomoea hederacea, 312 h, evaluated after 13 days, read-out: damage to plant (100=total damage to plant; 0=no damage to plant)
Method: as §1, with “14 days” for “one day”
as §3

ELEIN = test: Post-emergence biological efficacy; settings: 312 h, evaluated after 13 days, read-out: damage to plant (100=total damage to plant; 0=no damage to plant)
Method: as §1, with “14 days” for “one day”
as §3

LOLPE [12] = test: Post-emergence biological efficacy; settings: Lolium perenne, 312 h, evaluated after 13 days, read-out: damage to plant (100=total damage to plant; 0=no damage to plant)
Method: as §1, with “14 days” for “one day”
as §3

DIGSA = test: Post-emergence biological efficacy; settings: Digitaria sanguinalis, 312 h, evaluated after 13 days, read-out: damage to plant (100=total damage to plant; 0=no damage to plant)
Method: as §1, with “14 days” for “one day”
as §3

Row | SMILES | pest or weed control at 250 g/ha (ECHCG [1]) [%] | pest or weed control at 250 g/ha (AMAPA [2]) [%] | pest or weed control at 250 g/ha (EPHHL [3]) [%] | pest or weed control at 250 g/ha (SETFA [4]) [%] | pest or weed control at 250 g/ha (IPOHE [5]) [%] | pest or weed control at 250 g/ha (LOLPE [6]) [%] | pest or weed control at 250 g/ha (ECHCG [7]) [%] | pest or weed control at 250 g/ha (CHEAL) [%] | pest or weed control at 250 g/ha (AMAPA [8]) [%] | pest or weed control at 250 g/ha (EPHHL [9]) [%] | pest or weed control at 250 g/ha (SETFA [10]) [%] | pest or weed control at 250 g/ha (IPOHE [11]) [%] | pest or weed control at 250 g/ha (ELEIN) [%] | pest or weed control at 250 g/ha (LOLPE [12]) [%] | pest or weed control at 250 g/ha (DIGSA) [%]
1 | CCOC(=O)C1(C)CC(c2cc(-c3cc(C(F)(F)F)cc(Cl)n3)c(F)cc2Cl)=NO1 (stereo not drawn) [Compound 1-67, Ethyl 3-[2-chloro-5-[6-chloro-4-(trifluoromethyl)-2-pyridyl]-4-fluoro-phenyl]-5-methyl-4H-isoxazole-5-carboxylate] | 0 | 10 | 0 | 0 | 0 | 0 | 0 | 10 | 20 | 40 | 20 | 30 | 0 | 0 | 10
2 | CCOC(=O)C1(C)CC(c2cc(-c3ccnc(Cl)c3Cl)c(F)cc2Cl)=NO1 (stereo not drawn) [Compound 1-535, Ethyl 3-[2-chloro-5-(2,3-dichloro-4-pyridyl)-4-fluoro-phenyl]-5-methyl-4H-isoxazole-5-carboxylate] | 10 |  | 0 | 40 | 40 | 0 | 80 | 100 | 100 | 100 | 100 | 100 | 80 | 50 | 90
3 | CCOC(=O)C1(C)CC(c2cc(-c3ccc(OC)nn3)c(F)cc2Cl)=NO1 (stereo not drawn) [Compound 1-703, Ethyl 3-[2-chloro-4-fluoro-5-(6-methoxypyridazin-3-yl)phenyl]-5-methyl-4H-isoxazole-5-carboxylate] | 0 |  | 0 | 0 | 0 | 0 | 80 | 100 | 100 | 100 | 70 | 60 | 70 | 70 | 70
4 | CCOC(=O)C1(C)CC(c2cc(-c3cnc(C(F)(F)F)cn3)c(F)cc2Cl)=NO1 (stereo not drawn) [Compound 1-751, Ethyl 3-[2-chloro-4-fluoro-5-[5-(trifluoromethyl)pyrazin-2-yl]phenyl]-5-methyl-4H-isoxazole-5-carboxylate] | 50 | 20 |  | 40 | 50 | 20 | 100 | 100 | 100 | 100 | 100 | 100 | 100 | 70 | 100
5 | CCOC(=O)C1(C)CC(c2cc(-c3cc(C(F)(F)F)cnc3Br)c(F)cc2Cl)=NO1 (stereo not drawn) [Compound 1-835, Ethyl 3-[5-[2-bromo-5-(trifluoromethyl)-3-pyridyl]-2-chloro-4-fluoro-phenyl]-5-methyl-4H-isoxazole-5-carboxylate] | 0 | 70 | 0 | 0 | 10 | 0 |  |  |  |  |  |  |  |  | 
